Data: ChEMBL document CHEMBL1147611, “Anti-AIDS agents. Part 57: Actein, an anti-HIV principle from the rhizome of Cimicifuga racemosa (black cohosh), and the anti-HIV activity of related saponins” (Bioorg Med Chem Lett, 2004)
Values after ≈ are worked out from the molar mass of the structure shown.

Assays:
H9 [1] = test: Effective concentration required to suppress HIV replication in H9 lymphocytes was determined; Moderate activity; assay type: functional, cell-based, Homo sapiens
[2] = Therapeutic index of compound was determined by the ratio of IC50 to that of EC50; assay type: cell-based; settings: human, H9 cells; read-out: TI
H9 [3] = test: Effective concentration required to suppress HIV replication in H9 lymphocytes was determined; assay type: functional, cell-based; settings: Homo sapiens

SMILES | EC50 (H9 [1]) | selectivity ratio [2] | EC50 (H9 [3]) [µg/mL]
C=CC(C)(O)CC/C=C(\CO)C(=O)O[C@H]1[C@H](O[C@@H]2[C@H](OC(=O)[C@]34CCC(C)(C)C[C@H]3C3=CC[C@@H]5[C@@]6(C)CC[C@H](O[C@H]7O[C@@H](CO[C@@H]8OC[C@H](O)[C@@H](O)[C@@H]8O[C@@H]8OC[C@@H](O)[C@H](O)[C@@H]8O)[C@@H](O)[C@H](O)[C@@H]7O)C(C)(C)[C@@H]6CC[C@@]5(C)[C@]3(C)CC4)O[C@@H](COC(=O)/C(=C/CC[C@](C)(C=C)O[C@@H]3OC[C@@H](O)[C@H](O)[C@@H]3OC(=O)/C(=C/CC[C@@](C)(O)C=C)CO)CO)[C@@H](O)[C@@H]2O)O[C@@H](C)[C@H](O[C@@H]2OC[C@@H](O)[C@H](O[C@@H]3OC[C@@H](O)[C@H](O)[C@@H]3O)[C@@H]2O)[C@@H]1O (some centres undefined) | Moderate |  | 
C[C@@H]1C[C@H]2O[C@@]3(O[C@@H]2C(C)(C)O)[C@H](O)[C@@]2(C)[C@@H]4CC[C@H]5C(C)(C)[C@@H](O[C@@H]6OC[C@@H](O)[C@H](O)[C@H]6O)CC[C@@]56C[C@@]46CC[C@]2(C)[C@@H]13 |  | 30.2 | 
CC(=O)O[C@@H]1C[C@@]23C[C@@]24CC[C@H](OC2OCC(O)C(O)C2O)C(C)(C)[C@@H]4CC[C@H]3[C@]2(C)C[C@@H]3O[C@]4(C[C@@H](C)[C@@H]3[C@@]12C)OC[C@]1(C)O[C@H]41 (some centres undefined) |  | 30.2 | 
CC(=O)OC1COC(O[C@H]2CC[C@]34C[C@]35CC[C@]3(C)[C@@H]([C@H](C)C[C@@H](OC(C)=O)[C@@H]6OC6(C)C)C(=O)[C@H](OC(C)=O)[C@@]3(C)[C@@H]5CC[C@H]4C2(C)C)C(OC(C)=O)C1OC(C)=O (some centres undefined) |  | 30.2 | 
CC(=O)O[C@@H]1C[C@@]23C[C@@]24CC[C@H](OC2OCC(O)C(O)C2O)C(C)(C)[C@@H]4CC[C@H]3[C@]2(C)C[C@@H]3O[C@]4(C[C@@H](C)[C@@H]3[C@@]12C)O[C@H](O)[C@@]1(C)O[C@@H]41 (some centres undefined) |  | 144 | 0.375 (≈ 0.554 µM)
C[C@H]1[C@H]2[C@H](C[C@@]3(C)C4=CC[C@H]5C(C)(C)[C@@H](OC6OCC(O)C(O)C6O)CC[C@@]56C[C@@]46CC[C@]23C)O[C@@]2(O)[C@@H]1OC(C)(C)[C@H]2O (some centres undefined) |  | 30.2 | 
C[C@@H]1CC[C@@]2(OC1)O[C@H]1C[C@H]3[C@@H]4CC[C@@H]5C[C@@H](O[C@@H]6O[C@@H](CO)[C@@H](O)[C@H](O)[C@@H]6O[C@@H]6O[C@H](C)[C@H](O)[C@@H](O)[C@@H]6O)CC[C@]5(C)[C@H]4CC[C@]3(C)[C@H]1[C@@H]2C |  |  | < 0.25
C=CC(C)(O)CC/C=C(\CO)C(=O)O[C@H]1[C@@H](OC[C@@H]2O[C@@H](OC(=O)[C@]34CCC(C)(C)C[C@H]3C3=CC[C@@H]5[C@@]6(C)CC[C@H](O[C@@H]7O[C@@H](CO[C@@H]8OC[C@H](O)[C@H](O)[C@@H]8O[C@@H]8OC[C@@H](O)[C@H](O)[C@@H]8O)[C@@H](O)[C@H](O)[C@@H]7O)C(C)(C)[C@@H]6CC[C@@]5(C)[C@]3(C)C[C@H]4O)C(O[C@@H]3O[C@@H](C)[C@H](O[C@@H]4OC[C@@H](O)[C@H](O[C@@H]5OC[C@@H](O)[C@H](O)C5O)[C@@H]4O)[C@H](O)[C@H]3O)[C@@H](O)[C@@H]2O)O[C@@H](C)[C@H](O)[C@@H]1OC(=O)/C(=C/CCC(C)(O)C=C)CO (some centres undefined) | Moderate |  | 
C=CC(C)(O)CC/C=C(\CO)C(=O)OC[C@@H]1O[C@@H](OC(=O)[C@]23CCC(C)(C)C[C@H]2C2=CC[C@@H]4[C@@]5(C)CC[C@H](O[C@@H]6O[C@@H](CO[C@@H]7OC[C@H](O)[C@H](O)[C@@H]7O[C@@H]7OC[C@@H](O)[C@H](O)[C@@H]7O)[C@@H](O)[C@H](O)[C@@H]6O)C(C)(C)[C@@H]5CC[C@@]4(C)[C@]2(C)CC3)C(O[C@@H]2O[C@@H](C)[C@H](O[C@@H]3OC[C@@H](O)[C@H](O[C@@H]4OC[C@@H](O)[C@H](O)C4O)[C@@H]3O)[C@H](O)[C@H]2O)[C@@H](O)[C@@H]1O (some centres undefined) | Moderate |  | 
C[C@@H]1CC[C@@]2(OC1)O[C@H]1C[C@H]3[C@@H]4CC[C@@H]5C[C@@H](O[C@@H]6O[C@@H](CO)[C@H](O)[C@H](O)[C@@H]6O[C@@H]6O[C@@H](CO)[C@@H](O)[C@H](O)[C@@H]6O)CC[C@]5(C)[C@H]4CC[C@]3(C)[C@H]1[C@@H]2C |  |  | < 0.25
C=CC(C)(O)CC/C=C(\CO)C(=O)OC[C@@H]1O[C@@H](OC(=O)[C@]23CCC(C)(C)C[C@H]2C2=CC[C@@H]4[C@@]5(C)CC[C@H](O[C@@H]6O[C@@H](CO[C@@H]7OC[C@H](O)[C@H](O)[C@@H]7O[C@@H]7OC[C@@H](O)[C@H](O)[C@@H]7O)[C@@H](O)[C@H](O)[C@@H]6O)C(C)(C)[C@@H]5CC[C@@]4(C)[C@]2(C)C[C@H]3O)C(O[C@@H]2O[C@@H](C)[C@H](O[C@@H]3OC[C@@H](O)[C@H](O[C@@H]4OC[C@@H](O)[C@H](O)C4O)[C@@H]3O)[C@H](O)[C@H]2O)[C@@H](O)[C@@H]1O (some centres undefined) | Moderate |  | 
C[C@@H]1C[C@]2(C[C@@H](C)[C@H]3[C@@H](C[C@@]4(C)C5=C(CC[C@]34C)[C@@]3(C)CC[C@H](O[C@@H]4O[C@@H](O[C@@H]6OC[C@H](O)[C@H](O)[C@@H]6O[C@@H]6O[C@@H](CO)[C@@H](O)[C@H](O)[C@@H]6O[C@@H]6O[C@@H](C)[C@H](O)[C@H](O)[C@H]6O)[C@@H](O)[C@H](O)[C@@H]4O)[C@@](C)(CO)[C@@H]3CC5)O2)OC1=O |  | 30.2 | 
C[C@H]1[C@H]2[C@H](C[C@@]3(C)[C@@H]4CC[C@H]5C(C)(C)[C@@H](OC6OCC(O)C(O)C6O)CC[C@@]56C[C@@]46CC[C@]23C)O[C@@]2(O)[C@@H]1OC(C)(C)[C@H]2O (some centres undefined) |  | 30.2 | 
